This note sets out measurements from patent US20240254118A1, “PRMT5 INHIBITORS AND USES THEREOF” (Gilead Sciences, Inc., priority 2022, published 2024).

For test [1], the system named is SDMA signal (PRMT5 inhibition) in HCT116 MTAP-deleted cells. Kind of test: Symmetric di-methyl arginine image-based high content screen assay (SDMA assay), HCT116 MTAP-deleted. To be noted: SDMA assay; for EC50: Homo sapiens, HCT-116, 72 h, 3 days of treatment, cell line not given, taken as HCT116 MTAP-deleted, read-out: EC50 (SDMA assay); for EC50 selectivity (SDMA assay): taken as HCT116 WT versus MTAP-deleted. The test is classed as cell-based. Summed up: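 HCT116 MTAP-deleted cells treated with compound until Day 3, then formalin-fixed, permeabilized and immunostained for SDMA, with DAPI nuclear counterstain. Imaged by high-content microscopy; SDMA read-out is mean Alexa 488 intensity per DAPI-defined cell, reflecting PRMT5 inhibition.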

The subject of test [2] is HCT116 MTAP-deleted cells. Briefly: Cell viability assay (CellTiter-Glo, 7 days), HCT116 MTAP-deleted. To be noted: Homo sapiens, HCT-116, 168 h.

SMILES strings stand for the structures. Some results are limits rather than exact numbers.

With `Cn1ncc2c(N)nc3ccc(C(=O)N(Cc4ccc(C(F)(F)F)cn4)N4C[C@H]5C[C@@H]4CO5)cc3c21` [Example 299, 4-amino-N-((1R,4R)-2-oxa-5-azabicyclo[2.2.1]heptan-5-yl)-1-methyl-N-((5-(trifluoromethyl)pyridin-2-yl)methyl)-1H-pyrazolo[4,3-c]quinoline-8-carboxamide], in test [1], the EC50 (as a rule, the midpoint of the concentration-response curve) was below 1 nM and the “EC50 selectivity (SDMA assay)” value worked out at 144. Besides, in test [2], the CC50 (commonly the concentration giving 50% cytotoxicity) is below 100 nM.
The matching figures for `Cn1ncc2c(N)nc3cc(F)c(C(=O)N(Cc4ccc(C(F)(F)F)cn4)N4C[C@H]5C[C@@H]4CO5)cc3c21` [Example 300, 4-amino-N-((1R,4R)-2-oxa-5-azabicyclo[2.2.1]heptan-5-yl)-7-fluoro-1-methyl-N-((5-(trifluoromethyl)pyridin-2-yl)methyl)-1H-pyrazolo[4,3-c]quinoline-8-carboxamide]: below 1 nM, 24 and below 100 nM.
On the same counts, the results for `CC(=O)N(C)N(Cc1cccc2c1OC(F)(F)O2)C(=O)c1cc2c(cc1F)nc(N)c1cnn(C)c12` [Example 301, N′-acetyl-4-amino-N-((2,2-difluorobenzo[d][1,3]dioxol-4-yl)methyl)-7-fluoro-N′,1-dimethyl-1H-pyrazolo[4,3-c]quinoline-8-carbohydrazide] are below 1 nM, 106 and below 100 nM.
On the same counts, the results for `CN(C(=O)C1CC1)N(Cc1cccc2c1OC(F)(F)O2)C(=O)c1ccc2nc(N)c3cnn(C)c3c2c1` [Example 302, 4-amino-N′-(cyclopropanecarbonyl)-N-((2,2-difluorobenzo[d][1,3]dioxol-4-yl)methyl)-N′,1-dimethyl-1H-pyrazolo[4,3-c]quinoline-8-carbohydrazide] are 1 to 5 nM, 248 and below 100 nM.
`CN(C(=O)C1CC1)N(Cc1cccc2c1OC(F)(F)O2)C(=O)c1cc2c(cc1F)nc(N)c1cnn(C)c12` [Example 303, 4-amino-N′-(cyclopropanecarbonyl)-N-((2,2-difluorobenzo[d][1,3]dioxol-4-yl)methyl)-7-fluoro-N′,1-dimethyl-1H-pyrazolo[4,3-c]quinoline-8-carbohydrazide]: in test [1], the EC50 was below 1 nM and the “EC50 selectivity (SDMA assay)” value was determined as 58. In test [2], this compound registered a CC50 below 100 nM.
The matching figures for `CN(C(=O)C1CC1)N(Cc1ccc(C(F)(F)F)cn1)C(=O)c1cc2c(cc1Cl)nc(N)c1cnn(C)c12` [Example 304, 4-amino-7-chloro-N′-(cyclopropanecarbonyl)-N′,1-dimethyl-N-((5-(trifluoromethyl)pyridin-2-yl)methyl)-1H-pyrazolo[4,3-c]quinoline-8-carbohydrazide]: 1 to 5 nM, 15 and below 100 nM.
The matching figures for `[2H]C1([2H])C([2H])([2H])C1([2H])C(=O)N(C)N(Cc1ccc(C(F)(F)F)cn1)C(=O)c1ccc2nc(N)c3cnn(C)c3c2c1` [Example 305, 4-amino-N′-(cyclopropane-1-carbonyl-d5)-N′,1-dimethyl-N-((5-(trifluoromethyl)pyridin-2-yl)methyl)-1H-pyrazolo[4,3-c]quinoline-8-carbohydrazide]: below 1 nM, 75 and below 100 nM.
The matching figures for `CC(=O)N(C)N(Cc1cccc2c1OC(F)(F)O2)C(=O)c1ccc2nc(N)c3cnn(C)c3c2c1` [Example 307, N′-acetyl-4-amino-N-((2,2-difluorobenzo[d][1,3]dioxol-4-yl)methyl)-N′,1-dimethyl-1H-pyrazolo[4,3-c]quinoline-8-carbohydrazide]: below 1 nM, 359 and below 100 nM.
Consider `Cn1ncc2c(N)nc3ccc(C(=O)N(Cc4ccc(C(F)(F)F)cn4)NC(=O)C4(F)CC4)cc3c21` [Example 308, 4-amino-N′-(1-fluorocyclopropane-1-carbonyl)-1-methyl-N-((5-(trifluoromethyl)pyridin-2-yl)methyl)-1H-pyrazolo[4,3-c]quinoline-8-carbohydrazide], for which, in test [1], the half-maximal effective concentration (EC50) was below 1 nM and the “EC50 selectivity (SDMA assay)” value is 122. This compound returned a CC50 in test [2] below 100 nM.
Turning to `Cn1ncc2c(N)nc3cc(F)c(C(=O)N(Cc4ccc(C(F)(F)F)cn4)N4C[C@H]5CC[C@@H](C4)O5)cc3c21` [Example 309, 4-amino-N-((1R,5S)-8-oxa-3-azabicyclo[3.2.1]octan-3-yl)-7-fluoro-1-methyl-N-((5-(trifluoromethyl)pyridin-2-yl)methyl)-1H-pyrazolo[4,3-c]quinoline-8-carboxamide], in test [1], the EC50 lay in the range of 1 to 5 nM and the “EC50 selectivity (SDMA assay)” value is listed as 52. In test [2], this compound showed a CC50 below 100 nM.
The matching figures for `C[C@@H]1CN(N(Cc2ccc(C(F)(F)F)cn2)C(=O)c2ccc3nc(N)c4cnn(C)c4c3c2)C[C@H](C)O1` [Example 310, 4-amino-N-((2S,6R)-2,6-dimethylmorpholino)-1-methyl-N-((5-(trifluoromethyl)pyridin-2-yl)methyl)-1H-pyrazolo[4,3-c]quinoline-8-carboxamide]: below 1 nM, 132 and below 100 nM.
The matching figures for `CN(C(=O)C1CC1)N(Cc1cc(F)c(-c2cnn(C(F)(F)F)c2)cc1F)C(=O)c1ccc2nc(N)c3cnn(C)c3c2c1` [Example 311, 4-amino-N′-(cyclopropanecarbonyl)-N-(2,5-difluoro-4-(1-(trifluoromethyl)-1H-pyrazol-4-yl)benzyl)-N′,1-dimethyl-1H-pyrazolo[4,3-c]quinoline-8-carbohydrazide]: 1 to 5 nM, 58 and below 100 nM.
On the same counts, the results for `Cc1cc(CN(C(=O)c2ccc3nc(N)c4cnn(C)c4c3c2)N(C)C(=O)C2CC2)c(F)cc1-c1cnn(C(F)(F)F)c1` [Example 315, 4-amino-N′-(cyclopropanecarbonyl)-N-(2-fluoro-5-methyl-4-(1-(trifluoromethyl)-1H-pyrazol-4-yl)benzyl)-N′,1-dimethyl-1H-pyrazolo[4,3-c]quinoline-8-carbohydrazide] are below 1 nM, 160 and below 100 nM.
Consider `Cc1cc(CN(C(=O)c2ccc3nc(N)c4cnn(C)c4c3c2)N(C)C(=O)C2CC2)c(F)cc1-c1cnn(C(F)F)c1` [Example 318, 4-amino-N′-(cyclopropanecarbonyl)-N-(4-(1-(difluoromethyl)-1H-pyrazol-4-yl)-2-fluoro-5-methylbenzyl)-N′,1-dimethyl-1H-pyrazolo[4,3-c]quinoline-8-carbohydrazide], for which, in test [1], the EC50 was below 1 nM and the “EC50 selectivity (SDMA assay)” value came out at 130. This compound registered a CC50 in test [2] below 100 nM.
The matching figures for `CC(=O)N(C)N(Cc1ccc2nc(C)sc2c1)C(=O)c1ccc2nc(N)c3cnn(C)c3c2c1` [Example 321, N′-acetyl-4-amino-N′,1-dimethyl-N-((2-methylbenzo[d]thiazol-6-yl)methyl)-1H-pyrazolo[4,3-c]quinoline-8-carbohydrazide]: below 1 nM, 85 and below 100 nM.
The matching figures for `Cn1ncc2c(N)nc3ccc(C(=O)N(Cc4ccc(C(F)(F)F)cc4F)n4cnc5ccccc54)cc3c21` [Example 322, 4-amino-N-(1H-benzo[d]imidazol-1-yl)-N-(2-fluoro-4-(trifluoromethyl)benzyl)-1-methyl-1H-pyrazolo[4,3-c]quinoline-8-carboxamide]: below 1 nM, 34 and below 100 nM.
On the same counts, the results for `CN(C(=O)C1CC1)N(Cc1ccc2nc(C(F)(F)F)sc2c1)C(=O)c1ccc2nc(N)c3cnn(C)c3c2c1` [Example 323, 4-amino-N′-(cyclopropanecarbonyl)-N′,1-dimethyl-N-((2-(trifluoromethyl)benzo[d]thiazol-6-yl)methyl)-1H-pyrazolo[4,3-c]quinoline-8-carbohydrazide] are 1 to 5 nM, 44 and below 100 nM.
`CN(C(=O)C1CC1)N(Cc1ccc(C(F)F)cc1F)C(=O)c1ccc2nc(N)c3cnn(C)c3c2c1` [Example 324, 4-amino-N′-(cyclopropanecarbonyl)-N-(4-(difluoromethyl)-2-fluorobenzyl)-N′,1-dimethyl-1H-pyrazolo[4,3-c]quinoline-8-carbohydrazide]: in test [1], the EC50 is below 1 nM and the “EC50 selectivity (SDMA assay)” value came out at 111. In addition, the CC50 in test [2] was below 100 nM.
On the same counts, the results for `[2H]C([2H])([2H])N(C(=O)C1CC1)N(Cc1ccc(C(F)(F)F)cn1)C(=O)c1ccc2nc(N)c3cnn(C)c3c2c1` [Example 325, 4-amino-N′-(cyclopropanecarbonyl)-1-methyl-N′-(methyl-d3)-N-((5-(trifluoromethyl)pyridin-2-yl)methyl)-1H-pyrazolo[4,3-c]quinoline-8-carbohydrazide] are below 1 nM, 103 and below 100 nM.
Regarding `[2H]C([2H])([2H])N(C(=O)C1CC1)N(Cc1ccc(C(F)(F)F)cn1)C(=O)c1ccc2nc(N)c3cnn(C([2H])([2H])[2H])c3c2c1` [Example 326, 4-amino-N′-(cyclopropanecarbonyl)-N′,1-bis(methyl-d3)-N-((5-(trifluoromethyl)pyridin-2-yl)methyl)-1H-pyrazolo[4,3-c]quinoline-8-carbohydrazide], in test [1], the EC50 is below 1 nM and the “EC50 selectivity (SDMA assay)” value came to 114. This compound also displayed a CC50 in test [2] below 100 nM.
